Results from PMC9318275, “A Novel ALDH1A1 Inhibitor Blocks Platinum-Induced Senescence and Stemness in Ovarian Cancer” (Cancers, 2022).

Tests used:
ALDH1A1 [1] = molecular target: T1, ALDH1A1 (Homo sapiens, UniProt P00352); assay: purified recombinant enzyme, NAD(P)H formation at […] nm with propionaldehyde as substrate; format: biochemical
T1 sequence (P00352 2-501): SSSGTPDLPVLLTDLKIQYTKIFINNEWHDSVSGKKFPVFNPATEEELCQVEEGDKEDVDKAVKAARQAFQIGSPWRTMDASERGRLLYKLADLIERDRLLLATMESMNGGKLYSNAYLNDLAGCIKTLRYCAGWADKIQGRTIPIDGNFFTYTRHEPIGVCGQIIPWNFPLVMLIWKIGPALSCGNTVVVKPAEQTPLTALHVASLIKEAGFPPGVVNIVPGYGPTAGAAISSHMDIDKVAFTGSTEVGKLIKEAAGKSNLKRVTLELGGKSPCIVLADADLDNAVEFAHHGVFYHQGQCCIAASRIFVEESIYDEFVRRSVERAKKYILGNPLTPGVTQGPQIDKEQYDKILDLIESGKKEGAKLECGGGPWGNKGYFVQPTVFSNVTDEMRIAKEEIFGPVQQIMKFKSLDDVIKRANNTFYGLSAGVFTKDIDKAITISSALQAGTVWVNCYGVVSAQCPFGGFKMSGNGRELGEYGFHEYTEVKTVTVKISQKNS

ALDH2 = molecular target: T2, ALDH2 (Homo sapiens, UniProt P05091); assay: biochemical; design: NAD(P)H formation at 340 nm, purified recombinant ALDH isoenzymes; conditions: read-out: ALDH2 % activity versus control at 20 uM
T2 sequence (P05091 1-517): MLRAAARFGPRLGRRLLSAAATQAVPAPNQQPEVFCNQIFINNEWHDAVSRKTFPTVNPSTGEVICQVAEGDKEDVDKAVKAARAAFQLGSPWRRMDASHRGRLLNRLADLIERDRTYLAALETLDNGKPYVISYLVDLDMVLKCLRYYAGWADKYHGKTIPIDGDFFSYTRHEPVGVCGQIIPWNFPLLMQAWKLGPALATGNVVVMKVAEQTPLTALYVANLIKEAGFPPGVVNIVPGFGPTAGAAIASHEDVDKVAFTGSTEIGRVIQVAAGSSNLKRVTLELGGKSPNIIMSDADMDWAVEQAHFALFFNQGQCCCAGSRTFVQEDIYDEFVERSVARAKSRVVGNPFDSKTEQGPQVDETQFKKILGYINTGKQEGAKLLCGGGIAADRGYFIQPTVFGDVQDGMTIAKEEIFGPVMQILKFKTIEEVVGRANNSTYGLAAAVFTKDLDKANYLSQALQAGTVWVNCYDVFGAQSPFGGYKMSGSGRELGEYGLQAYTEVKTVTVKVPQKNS
Procedure: (§1) Human ALDH1A1, ALDH1A2, and ALDH1A3 were prepared and purified as previously described. The inhibition of ALDH activity by compounds and the IC50 curves were determined by measuring the formation of NAD(P)H spectrophotometrically at 340 nm (molar extinction coefficient of 6200 M^−1 cm^−1) on a Beckman DU-640 as well as a Spectramax 340 PC spectrophotometer (GMI, Ramsey, NJ, USA) using a purified recombinant enzyme. The reaction components for assays with ALDH1A enzymes consisted of 100–200 nM enzyme, 200 µM NAD+, 100 µM propionaldehyde, and 1% DMSO in 25 mM BES buffer at pH 7.5. All assays were performed at 25 °C and were initiated by the addition of substrate after a 2 min incubation period. The purification of and the reaction conditions for the other ALDH isoenzymes were as described in [27]. […] The data were fit to the four-parameter EC50 equation using SigmaPlot (v14), and the values represent the means/SEM of three independent experiments (n = 3). Figure S1. X-Ray Crystallography of CM38 with ALDH1A1 and characterization of inhibitor activ-ity (A). Structure of Human ALDH1A1 with bound compound CM38. […] (B). Inhibition of ALDH activity by compounds and IC50 curves were determined by measuring the formation of NAD(P)H spectro-photometrically at 340 nm using purified recombinant enzymes. (C). […]

ALDH1B1 = molecular target: T3, ALDH1B1 (Homo sapiens, UniProt P30837); assay: biochemical; design: NAD(P)H formation at 340 nm, purified recombinant ALDH isoenzymes; conditions: read-out: ALDH1B1 % activity versus control at 20 uM
T3 sequence (P30837 1-517): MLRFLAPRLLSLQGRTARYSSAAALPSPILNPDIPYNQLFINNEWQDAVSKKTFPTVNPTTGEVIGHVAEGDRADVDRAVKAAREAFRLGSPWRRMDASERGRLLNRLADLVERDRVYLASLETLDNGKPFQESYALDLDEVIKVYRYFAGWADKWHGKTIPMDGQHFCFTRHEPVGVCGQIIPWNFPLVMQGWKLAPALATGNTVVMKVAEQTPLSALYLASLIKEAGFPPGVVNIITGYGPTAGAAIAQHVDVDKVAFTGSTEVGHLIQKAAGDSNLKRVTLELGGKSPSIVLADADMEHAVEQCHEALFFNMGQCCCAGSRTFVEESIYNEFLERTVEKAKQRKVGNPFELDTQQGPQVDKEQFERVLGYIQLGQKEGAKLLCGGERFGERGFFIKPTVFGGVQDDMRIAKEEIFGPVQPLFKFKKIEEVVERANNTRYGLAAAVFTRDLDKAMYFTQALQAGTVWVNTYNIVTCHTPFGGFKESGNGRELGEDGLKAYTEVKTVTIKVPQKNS
Procedure: as §1

ALDH1A3 = molecular target: T4, ALDH1A3 (Homo sapiens, UniProt P47895); assay: biochemical; design: NAD(P)H formation at 340 nm, purified recombinant ALDH1A enzyme, propionaldehyde and NAD+; conditions: read-out: ALDH1A3 % activity versus control at 20 uM
T4 sequence (P47895 1-512): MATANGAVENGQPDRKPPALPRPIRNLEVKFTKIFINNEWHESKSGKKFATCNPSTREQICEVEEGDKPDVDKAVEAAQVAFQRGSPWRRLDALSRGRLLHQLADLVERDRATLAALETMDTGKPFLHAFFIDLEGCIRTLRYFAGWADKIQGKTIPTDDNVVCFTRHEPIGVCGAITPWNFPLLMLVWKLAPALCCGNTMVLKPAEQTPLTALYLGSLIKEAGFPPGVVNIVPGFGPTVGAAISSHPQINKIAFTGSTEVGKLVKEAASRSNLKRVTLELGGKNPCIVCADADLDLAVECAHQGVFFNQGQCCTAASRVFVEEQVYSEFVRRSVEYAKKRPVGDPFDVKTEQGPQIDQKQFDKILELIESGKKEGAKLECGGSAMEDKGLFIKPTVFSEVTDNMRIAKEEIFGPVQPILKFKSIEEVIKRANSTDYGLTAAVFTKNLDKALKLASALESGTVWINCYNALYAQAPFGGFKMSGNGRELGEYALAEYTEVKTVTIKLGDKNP
Procedure: as §1

ALDH1A2 = molecular target: T5, ALDH1A2 (Homo sapiens, UniProt O94788); assay: biochemical; design: NAD(P)H formation at 340 nm, purified recombinant ALDH1A enzyme, propionaldehyde and NAD+; conditions: read-out: ALDH1A2 % activity versus control at 20 uM
T5 sequence (O94788 1-518): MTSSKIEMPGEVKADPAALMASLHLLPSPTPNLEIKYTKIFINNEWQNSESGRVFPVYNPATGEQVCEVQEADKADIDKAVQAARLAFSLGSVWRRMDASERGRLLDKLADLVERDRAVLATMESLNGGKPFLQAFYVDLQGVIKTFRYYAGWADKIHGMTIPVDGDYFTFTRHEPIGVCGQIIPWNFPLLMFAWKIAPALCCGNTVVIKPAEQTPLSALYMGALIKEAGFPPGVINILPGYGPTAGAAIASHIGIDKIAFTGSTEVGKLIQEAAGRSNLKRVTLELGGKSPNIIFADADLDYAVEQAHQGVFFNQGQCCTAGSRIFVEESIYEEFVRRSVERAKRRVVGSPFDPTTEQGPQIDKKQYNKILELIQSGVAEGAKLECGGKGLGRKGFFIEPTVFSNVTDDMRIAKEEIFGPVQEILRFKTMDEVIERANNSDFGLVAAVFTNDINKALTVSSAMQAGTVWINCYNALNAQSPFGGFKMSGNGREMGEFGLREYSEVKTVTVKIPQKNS
Procedure: as §1

ALDH1A1 [2] = molecular target: T1, ALDH1A1; assay: X-ray crystal structure at […] Å (complex with NAD and CM38); format: binding

| Structure (SMILES) | IC50 (ALDH1A1 [1]) [nM] | remaining activity at 20 µM (ALDH2) [%] | remaining activity at 20 µM (ALDH1B1) [%] | remaining activity at 20 µM (ALDH1A3) [%] | remaining activity at 20 µM (ALDH1A2) [%] | X-ray crystal structure at 1.8 Å (complex with NAD and CM38) (ALDH1A1 [2]) |
| --- | --- | --- | --- | --- | --- | --- |
| Cc1c(C(=O)N2CCCCC2)oc2ccc3c(c12)C(=O)CC1(CCCCCC1)O3 [compound 974] | 470 | 76 ± 20 | 67 ± 3.9 | 85 ± 4 | 63 ± 4.2 | – |
| NC(=O)c1ccc[n+]([C@@H]2O[C@H](COP(=O)([O-])OP(=O)(O)OC[C@H]3O[C@@H](n4cnc5c(N)ncnc54)[C@H](O)[C@@H]3O)[C@@H](O)[C@H]2O)c1 [NAD] | – | – | – | – | – | we determined the structure of ALDH1A1 in a complex with both NAD and CM38 by X-ray crystallography |
